Patent US20210330611A1, “THERAPY FOR NEUROLOGICAL DISEASES/DISORDERS” (priority 2020, published 2021)
Structures can show the parent of a compound that is named as a salt. Where two headings read alike, the source gives them in different places.

Assays:
[1] = test system: fibrin-induced microglia activation; experiment: Image-based assay of fibrin-induced microglia activation (HTS and dose response); type: cell-based, rat; conditions: for inhibition at 10 µM: Rattus norvegicus, Microglia, read-out: Fibrin % inhibition
[2] = test system: LPS-induced microglia activation; experiment: Image-based assay of LPS-induced microglia activation (HTS and dose response); type: cell-based, rat
[3] = test system: fibrin- and LPS-induced microglia activation; experiment: cells; type: cell-based, rat
[4] = Rattus norvegicus, Microglia, 48 h, read-out: LPS % inhibition
[5] = Rattus norvegicus, Microglia, read-out: LPS % inhibition
[6] = primary microglia HTS, fibrin stimulation, increased cell size (>800 μm^2) as marker of activation
[7] = Rattus norvegicus, Microglia, 48 h, primary microglia HTS, LPS stimulation; increased cell size (>800 μm^2) as marker of activation; read-out: LPS % inhibition
[8] = quadrant by fibrin and LPS inhibition in HTS of 1907 compounds
[9] = primary microglia HTS, fibrin stimulation, compounds at 10 μM
[10] = Rattus norvegicus, Microglia, primary microglia HTS, LPS stimulation, compounds at 10 μM; read-out: LPS % inhibition
[11] = classification by fibrin and LPS inhibition, HTS at 10 μM
[12] = quadrant by fibrin and LPS inhibition, HTS at 10 μM

CC(C)NCC(O)COc1cccc2ccccc12 (stereo not drawn) [Propranolol]
Fibrin % inhibition [1]: −30%
inhibition at 10 µM [2, 4]: 2%
Quadrant (FIG. 5b) [3]: Q4
LPS % cell toxicity (primary rat microglia; rat): 0%

CN1CCC(OC(c2ccccc2)c2ccccc2)CC1 [Diphenylpyraline]
inhibition at 10 µM [1]: -69%
inhibition at 10 µM [2, 5]: 6%
Quadrant (FIG. 5b) [3]: Q4
LPS % cell toxicity (primary rat microglia; rat): 0%

C[C@@H]1C[C@@H]([C@H](O)CC2CC(=O)NC(=O)C2)C(=O)[C@@H](C)C1 [Cycloheximide]
inhibition at 10 µM [1, 6]: 108%
inhibition at 10 µM [2, 7]: 123%
Quadrant (FIG. 5b) [3, 8]: Q2
LPS % cell toxicity (primary rat microglia; rat): 45%

CCC1NC(=O)c2cc(S(N)(=O)=O)c(Cl)cc2N1 (stereo not drawn) [Quinethazone]
inhibition at 10 µM ([1]; primary microglia HTS, fibrin stimulation, cell size >800 μm2 as marker of activation): 15%
inhibition at 10 µM ([2]; Rattus norvegicus, Microglia, 48 h; read-out: LPS % inhibition): 17%
Quadrant (FIG. 5b) ([3]; classification by fibrin and LPS inhibition in HTS): Q4
LPS % cell toxicity (primary rat microglia; rat): 1%

CC(NC(C)(C)C)C(=O)c1cccc(Cl)c1.Cl (stereo not drawn)
Fibrin % inhibition ([1]; 10 µM): −15%
LPS % inhibition ([2]; 10 µM): 27%
Quadrant (FIG. 5b) [3]: Q4
LPS % cell toxicity (primary rat microglia): 2%

COc1cc([C@@H]2c3cc4c(cc3[C@@H](O[C@@H]3O[C@@H]5CO[C@@H](C)O[C@H]5[C@H](O)[C@H]3O)[C@H]3COC(=O)[C@H]23)OCO4)cc(OC)c1O [Etoposide]
inhibition at 10 µM [1, 9]: 30%
inhibition at 10 µM [2, 10]: 15%
Quadrant (FIG. 5b) [3, 11]: Q4
LPS % cell toxicity (primary rat microglia; rat): 0%

CCN1CCN(c2cc3c(cc2F)c(=O)c(C(=O)O)cn3C2CC2)CC1 [Enrofloxacin]
inhibition at 10 µM [1, 9]: 5%
inhibition at 10 µM [2, 10]: 23%
Quadrant (FIG. 5b) [3, 11]: Q4
LPS % cell toxicity (primary rat microglia; rat): 1%

O=C1c2c(O)ccc(O)c2C(=O)c2c(NCCNCCO)ccc(NCCNCCO)c21 [Mitoxantrone]
inhibition at 10 µM [1, 9]: 113%
inhibition at 10 µM [2, 10]: 122%
Quadrant (FIG. 5b) [3, 12]: Q2
LPS % cell toxicity (primary rat microglia; rat): 40%

CCCN(CCC)CCc1cccc2c1CC(=O)N2 [Ropinirole]
inhibition at 10 µM [1]: -26%
inhibition at 10 µM [2, 4]: 15%
Quadrant (FIG. 5b) [3]: Q4
LPS % cell toxicity (primary rat microglia; rat): 0%

CC(C)NC[C@@H](O)COc1cccc2ccccc12 [Dexpropranolol Hydrochloride]
inhibition at 10 µM [1]: -21%
inhibition at 10 µM [2, 5]: 19%
Quadrant (FIG. 5b) [3]: Q4
LPS % cell toxicity (primary rat microglia; rat): 0%

CCN(CC)CCNC(=O)c1cc(Br)c(N)cc1OC [Bromopride]
inhibition at 10 µM ([1]; primary HTS, 10 μM, fibrin-stimulated primary microglia): -2%
inhibition at 10 µM ([2]; Rattus norvegicus, Microglia, primary HTS, 10 μM, LPS-stimulated primary microglia; read-out: LPS % inhibition): 4%
Quadrant (FIG. 5b) ([3]; primary HTS, 10 μM): Q4
LPS % cell toxicity (primary rat microglia; rat): 0%

CCOC(=O)C1=C(COCCN)NC(C)=C(C(=O)OC)C1c1ccccc1Cl (stereo not drawn) [Amlodipine]
inhibition at 10 µM [1, 9]: -17%
inhibition at 10 µM [1, 6]: -29%
inhibition at 10 µM [2, 7]: 59%
inhibition at 10 µM [2, 10]: 36%
Quadrant (FIG. 5b) [3, 8]: Q1
Quadrant (FIG. 5b) [3, 12]: Q4
LPS % cell toxicity (primary rat microglia; rat): 2%

CC(C)c1cccc(C(C)C)c1O [Propofol]
inhibition at 10 µM [1]: -18%
inhibition at 10 µM [2, 4]: 11%
Quadrant (FIG. 5b) [3]: Q4
LPS % cell toxicity (primary rat microglia; rat): 0%

CCN(CC)Cc1cc(Nc2ccnc3cc(Cl)ccc23)ccc1O [Amodiaquine Dihydrochloride]
inhibition at 10 µM [1, 6]: 4%
inhibition at 10 µM [2, 7]: 114%
Quadrant (FIG. 5b) [3, 8]: Q1
LPS % cell toxicity (primary rat microglia; rat): 85%

COCCCC/C(=N\OCCN)c1ccc(C(F)(F)F)cc1 [Fluvoxamine]
inhibition at 10 µM ([1]; primary microglia HTS, fibrin stimulation, activation = cell size >800 μm2): -8%
inhibition at 10 µM ([2]; Rattus norvegicus, Microglia, 48 h, primary microglia HTS, LPS stimulation, activation = cell size >800 μm2; read-out: LPS % inhibition): -3%
Quadrant (FIG. 5b) [3, 8]: Q4
LPS % cell toxicity (primary rat microglia; rat): 0%

CC1(C)[C@@H](O)CC[C@]2(C)[C@H]3C(=O)C=C4[C@@H]5C[C@@](C)(C(=O)O)CC[C@]5(C)CC[C@@]4(C)[C@]3(C)CC[C@@H]12 [Enoxolone]
inhibition at 10 µM [1, 9]: -40%
inhibition at 10 µM [2, 10]: 7%
Quadrant (FIG. 5b) [3, 11]: Q4
LPS % cell toxicity (primary rat microglia; rat): 0%

CC(=O)O[C@H]1C[C@@H]2CC[C@@H]3[C@H](CC[C@@]4(C)[C@H]3C[C@H]([N+]3(C)CCCCC3)[C@@H]4OC(C)=O)[C@@]2(C)C[C@@H]1[N+]1(C)CCCCC1 [Pancuronium Bromide]
Fibrin % inhibition [1, 6]: 9%
LPS % inhibition ([2]; primary microglia HTS, LPS stimulation; increased cell size (>800 μm^2) as marker of activation): 11%
Quadrant (FIG. 5b) [3, 8]: Q4
LPS % cell toxicity (primary rat microglia; rat): 0%

C#C[C@]1(O)CC[C@H]2[C@@H]3CCC4=CC(=O)CC[C@]4(C)[C@H]3CC[C@@]21C [Ethisterone]
inhibition at 10 µM [1, 9]: -5%
inhibition at 10 µM [2, 10]: 13%
Quadrant (FIG. 5b) [3, 11]: Q4
LPS % cell toxicity (primary rat microglia; rat): 1%
